We go through twelve compounds from US10202344B2, “Aryl substituted indoles and the use thereof” (Purdue Pharma L.P., priority 2010, dated 2019).

A word on the Ki: it is a dissociation constant, usually derived from enzyme kinetics or from competition with a known ligand. A word on the IC50: it is the concentration at which inhibition is half-maximal.

Sequence of human Nav1.7 (Q15858 other isoform, or with tags, fused parts or gaps): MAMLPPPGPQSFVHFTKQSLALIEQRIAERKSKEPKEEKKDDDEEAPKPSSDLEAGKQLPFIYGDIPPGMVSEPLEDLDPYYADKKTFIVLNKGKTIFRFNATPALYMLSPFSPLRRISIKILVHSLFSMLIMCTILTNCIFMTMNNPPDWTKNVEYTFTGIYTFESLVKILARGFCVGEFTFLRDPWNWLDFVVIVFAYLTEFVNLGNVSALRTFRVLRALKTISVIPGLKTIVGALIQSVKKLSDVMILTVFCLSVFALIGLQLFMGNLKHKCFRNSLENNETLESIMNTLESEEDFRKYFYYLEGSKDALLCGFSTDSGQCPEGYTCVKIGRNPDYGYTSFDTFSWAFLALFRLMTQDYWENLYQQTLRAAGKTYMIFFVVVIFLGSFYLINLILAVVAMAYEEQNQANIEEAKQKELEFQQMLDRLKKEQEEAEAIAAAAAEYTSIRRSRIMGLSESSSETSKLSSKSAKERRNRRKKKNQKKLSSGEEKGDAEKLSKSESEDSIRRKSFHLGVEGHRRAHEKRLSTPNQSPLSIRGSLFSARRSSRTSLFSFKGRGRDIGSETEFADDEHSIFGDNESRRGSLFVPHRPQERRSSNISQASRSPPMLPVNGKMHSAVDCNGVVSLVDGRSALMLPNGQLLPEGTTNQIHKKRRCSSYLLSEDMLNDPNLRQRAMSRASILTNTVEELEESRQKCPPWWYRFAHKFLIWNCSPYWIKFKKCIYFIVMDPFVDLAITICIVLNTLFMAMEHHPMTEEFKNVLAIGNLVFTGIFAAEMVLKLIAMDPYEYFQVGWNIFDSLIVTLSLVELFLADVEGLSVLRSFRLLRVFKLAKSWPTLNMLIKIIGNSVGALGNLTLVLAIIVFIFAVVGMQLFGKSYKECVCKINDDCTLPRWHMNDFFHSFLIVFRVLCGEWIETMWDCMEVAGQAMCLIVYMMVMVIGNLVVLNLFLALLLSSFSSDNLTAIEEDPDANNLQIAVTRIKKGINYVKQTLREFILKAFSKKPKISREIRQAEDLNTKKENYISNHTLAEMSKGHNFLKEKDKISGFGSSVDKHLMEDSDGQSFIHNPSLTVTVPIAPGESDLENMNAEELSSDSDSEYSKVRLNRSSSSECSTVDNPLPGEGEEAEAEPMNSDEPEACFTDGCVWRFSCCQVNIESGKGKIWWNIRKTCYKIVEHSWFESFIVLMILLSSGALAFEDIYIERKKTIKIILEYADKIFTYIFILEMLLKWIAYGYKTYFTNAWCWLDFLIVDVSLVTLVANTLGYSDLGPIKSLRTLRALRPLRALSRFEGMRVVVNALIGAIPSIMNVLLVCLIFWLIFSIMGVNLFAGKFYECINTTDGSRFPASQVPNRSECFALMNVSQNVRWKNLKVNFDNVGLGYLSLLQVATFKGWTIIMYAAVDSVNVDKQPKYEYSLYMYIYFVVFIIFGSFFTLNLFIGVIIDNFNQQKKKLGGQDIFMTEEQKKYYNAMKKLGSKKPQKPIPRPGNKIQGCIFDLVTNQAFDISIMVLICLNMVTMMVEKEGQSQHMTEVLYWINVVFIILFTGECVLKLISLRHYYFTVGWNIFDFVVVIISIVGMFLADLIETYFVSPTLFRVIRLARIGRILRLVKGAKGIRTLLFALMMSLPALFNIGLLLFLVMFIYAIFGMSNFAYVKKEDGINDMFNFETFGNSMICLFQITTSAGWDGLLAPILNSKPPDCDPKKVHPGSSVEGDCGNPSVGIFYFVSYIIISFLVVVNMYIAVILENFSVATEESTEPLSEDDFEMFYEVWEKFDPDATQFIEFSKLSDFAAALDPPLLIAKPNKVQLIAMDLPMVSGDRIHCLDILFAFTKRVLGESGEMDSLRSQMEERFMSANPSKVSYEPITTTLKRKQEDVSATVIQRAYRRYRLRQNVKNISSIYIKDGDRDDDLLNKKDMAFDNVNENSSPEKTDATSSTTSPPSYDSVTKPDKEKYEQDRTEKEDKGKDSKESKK
Sequence of hNav1.7 (Q15858 other isoform, or with tags, fused parts or gaps): as above

One assay deals with hNav1.7 (Homo sapiens (Human), UniProt Q15858). Briefly: Electrophysiology (EP) assay, whole-cell patch clamp. The class given is cell-based. The conditions noted are these: hNav1.7 expressing HEK-293 cells, read-out: EP Nav1.7 Ki. How it is done:
Cells: The hNav1.7 expressing HEK-293 cells were plated on 35 mm culture dishes pre-coated with poly-D-lysine in standard DMEM culture media (Mediatech, Inc., Herndon, Va.) and incubated in a 5% CO2 incubator at 37° C. Cultured cells were used approximately 12-48 hours after plating.
Electrophysiology: On the day of experimentation, the 35 mm dish was placed on the stage of an inverted microscope equipped with a perfusion system that continuously perfuses the culture dish with fresh recording media. A gravity driven superfusion system was used to apply test solutions directly to the cell under evaluation. This system consists of an array of glass pipette glass connected to a motorized horizontal translator. The outlet of the shooter was positioned approximately 100 μm from the cell of interest.
Gigaseals were formed and the whole-cell configuration was established in voltage clamp mode, and membrane currents generated by hNav1.7 were recorded in gap-free mode. […] Signals were sampled at 50 kHz and low pass filtered at 3 kHz.
The voltage clamp protocol to examine hNav1.7 currents was as follows. […] The amount of inhibition produced by the test compound was determined by comparing the current amplitude elicited by the test pulse in the absence and presence of the compound. […]
In general terms: Patch clamp records ionic current or voltage across a cell membrane.
As for `N#Cc1cccc(Oc2ccc(-n3cc(C[C@H](N)CO)c4ccccc43)cc2)c1` [Compound 57, (S)-5-{4-[3-(2-Amino-3-hydroxypropyl)-1H-indol-1-yl]phenoxy}benzonitrile], the Ki came out at 50 nM.
`CN(C)CCc1cn(-c2ccc(Oc3ccccc3)cc2)c2ccc(C[C@H]3COC(=O)N3)cc12` [Compound 45, (S)-4-{[3-(2-(Dimethylamino)ethyl)-1-(4-phenoxyphenyl)-1H-indol-5-yl]methyl}oxazolidin-2-one]: the Ki stood at 1310 nM.

Another assay addresses human Nav1.7 (Homo sapiens (Human), UniProt Q15858). The assay is described as follows: FLIPR or FLIPR TETRA sodium dye assay with KCl and test article pre-incubation. The class given is cell-based. The following applies: read-out: FLIPR Nav1.7 IC50 (μM) ± SEM.
Take `O=C(NCCO)c1nn(-c2ccc(Oc3ccccc3)cc2)c2ccccc12` [Compound 144, N-(2-hydroxyethyl)-1-(4-phenoxyphenyl)-1H-indazole-3-carboxamide]: the IC50 was found to be 0.16 ± 0.049 µM.
As to `N#Cc1cc(Oc2ccc(-n3cc(C(=O)C(N)=O)c4ccccc43)cc2)ccc1C(F)(F)F` [Compound 59, 2-(1-(4-(3-Cyano-4-(trifluoromethyl)phenoxy)phenyl)-1H-indol-3-yl)-2-oxoacetamide], the IC50 worked out at 3.54 ± 0.459 µM.

The same assay, now with this note: recombinant human Nav1.7 in HEK293 cells; sodium dye assay with KCl; read-out: FLIPR Nav1.7 IC50 (μM) ± SEM.
Turning to `NCCc1cn(-c2ccc(Oc3ccccc3)cc2)c2ccccc12` [Compound 43, 2-(1-(4-Phenoxyphenyl)-1H-indol-3-yl)ethanamine], the concentration for half-maximal inhibition (IC50) was found to be 0.684 ± 0.041 µM.
The same measure, in the same setting: the figure for `N#Cc1cccc(Oc2ccc(-n3cc(C[C@H](N)CO)c4ccccc43)cc2)c1` [Compound 57, (S)-5-{4-[3-(2-Amino-3-hydroxypropyl)-1H-indol-1-yl]phenoxy}benzonitrile] is 0.383 ± 0.081 µM; for “(S)-3-(1-(4-(4-fluorophenoxy)phenyl)-1H-pyrrolo[2,3-c]pyridin-3-yl)propane-1,2-diol [Compound 170]” it is 1.38 ± 0.542 µM.
For the compound `NC(=O)c1nn(-c2ccc(Oc3ccc(C(F)(F)F)cc3)cc2)c2ccc(F)cc12` [Compound 150, 5-fluoro-1-(4-(4-(trifluoromethyl)phenoxy)phenyl)-1H-indazole-3-carboxamide], the IC50 amounted to 6.97 ± 0.934 µM.
On to `N#Cc1cc(Oc2ccc(-n3cc(C[C@H]4COC(=O)N4)c4ccccc43)cc2)ccc1C(F)(F)F` [Compound 46, (S)-5-{4-[3-((2-Oxooxazolidin-4-yl)methyl)-1H-indol-1-yl]phenoxy}-2-(trifluoromethyl)benzonitrile], for which the IC50 stood at 0.715 ± 0.126 µM.
Regarding `CN(C)CCc1cn(-c2ccc(Oc3ccccc3)cc2)c2ccc(C[C@H]3COC(=O)N3)cc12` [Compound 45, (S)-4-{[3-(2-(Dimethylamino)ethyl)-1-(4-phenoxyphenyl)-1H-indol-5-yl]methyl}oxazolidin-2-one], the IC50 stood at 1.9 ± 0.636 µM.
On to `N#Cc1cc(Oc2ccc(-n3cc(C(=O)C(=O)NC[C@H](O)CO)c4ccccc43)cc2)ccc1C(F)(F)F` [Compound 68, (S)-2-(1-(4-(3-cyano-4-(trifluoromethyl)phenoxy)-phenyl)-1H-indol-3-yl)-N-(2,3-dihydroxypropyl)-2-oxoacetamide], for which the IC50 was determined as 0.572 ± 0.137 µM.
With `N#Cc1cc(Oc2ccc(-n3cc(C(=O)C(=O)O)c4cc([C@@H](O)CO)ccc43)cc2)ccc1C(F)(F)F` [Compound 98, (R)-2-(1-(4-(3-cyano-4-(trifluoromethyl)phenoxy)-phenyl)-5-(1,2-dihydroxyethyl)-1H-indol-3-yl)-2-oxoacetic acid], the IC50 was above 20 µM.
With `N#Cc1cc(Oc2ccc(-n3nc(C(N)=O)c4ccccc43)cc2)ccc1C(F)(F)F` [Compound 152, 1-(4-(3-cyano-4-(trifluoromethyl)phenoxy)-phenyl)-1H-indazole-3-carboxamide], the IC50 was found to be 0.602 ± 0.053 µM.
In the case of `CCOC(=O)C(Cc1c[nH]c2ccc(-c3ccc(Oc4ccccc4)cc3)cc12)[N+](=O)[O-]` (centres unmarked) [Compound 6, 2-Nitro-3-[5-(4-phenoxyphenyl)-1H-indol-3-yl]propionic acid ethyl ester], the IC50 came out at 5.14 ± 0.954 µM.
